Where “and” joins values, the source holds several entries; their conditions need not be identical. Equal entries are not always repeated.
Assays:
[1] = system: white adipose tissue gene expression (Ap2, Adipoq, Adipsin, Cd36, Pgc1a, Pparg); experiment: White adipose tissue (epididymal fat) gene expression by qRT-PCR; assay type: in vivo, rat; conditions: PAN rats
Method: (§1) This study was approved by the Institution Animal Care and Use Committee at Nationwide Children's Hospital, and their guidelines were followed when performing the experiments. Male Wistar rats were intravenously (IV) injected with puromycin aminonucleoside (PAN) (Sigma-Aldrich, St. Louis, Mo.) (50 mg/kg) on Day 0, which induced proteinuria, while control rats were given IV injections of saline. The rats were treated by oral gavage with Pioglitazone (Alfa Aesar, Tewksbury, Mass.) (10 mg/kg), GQ-16 (40 mg/kg), or a sham vehicle daily. GQ-16 and Pio dosages were determined based on previous studies, and GQ-16 was synthesized as previously described. Amato et al., The Journal of biological chemistry, 287: 28169-28179 (2012). Spot urine and serum were collected, and body weights were recorded throughout the study. […] Kerlin et al., Journal of the American Society of Nephrology: JASN, 26: 3009-3019 (2015). Kidneys were harvested, and the glomeruli were isolated using the sequential sieving method. Agrawal et al., Sci Rep, 6: 24392 (2016). Liver and white adipose tissue (WAT) epididymal fat were collected and flash frozen in liquid nitrogen.
(§2) Total RNA was extracted from isolated WAT epididymal fat and liver tissue samples using the RNeasy kit (Qiagen, Germantown, MD), following the manufacturer's instructions. Tissue samples in lysis buffer were placed in lock tubes with stainless-steel disruption beads and lysed at 30.0 Hz for 4 minutes using the Qiagen TissueLyser (Germantown, MD), followed by RNA isolation from the resulting lysate. Total RNA was isolated from glomeruli tissue samples using the mirVana™ Isolation Kit (Invitrogen, Carlsbad, CA), according to the manufacturer's instructions. Yield and purity were calculated for all isolated RNA samples by measuring the absorbance at 260, 280, and 230 nm and the ratios (both) with a spectrophotometer. 500 ng-1 μg of RNA was subjected to DNase (Invitrogen, Carlsbad, CA) digestion at room temperature for 15 minutes, which was then inactivated with 25 mM EDTA at 65° C. for 10 min. RNA was reverse transcribed using the iScript cDNA Synthesis Kit (Bio-Rad, Hercules, CA) according to the manufacturer's instructions. cDNA was used for quantitative reverse transcription-polymerase chain reaction (qRT-PCR) using gene specific and house-keeping primers. SYBR green (Bio-Rad, Hercules, Calif.) qRT-PCR was performed on the Applied Biosystems 7500 Real-Time PCR System. The PCR conditions were 95° C. for 10 minutes, 40× (95° C. for 15 seconds, 60° C. for 1 minute), followed by a melt curve to ensure specific products. The annealing temperature was at 60° C. for all genes except Pgc1a, Pparg, and Cd36 for which 52° C. annealing temperature was used. The melt curve conditions were 95° C. for 15 seconds, 60° C. for 1 minute, 30 seconds incremental increase to 95° C. and 60° C. for 15 seconds. The ΔΔCt method was used to analyze the results, including normalization to housekeeping genes (Rpl6 44 for glomeruli, Ppia 45, 46 for fat and liver). Pfaffl, M W, Nucleic acids research, 29: e45, 2001. Due to melt curve variation for Trpc6, amplified samples were also resolved on a 2% agarose gel, and densitometry was performed using ImageJ (National Institutes of Health, Bethesda, MD) software. Each gene was tested in triplicates for each tissue on at least three different rats per group.

[2] = system: PAN-induced nephropathy in male Wistar rats; experiment: Serum chemistry (albumin, cholesterol) in PAN-nephrotic rats; assay type: in vivo, rat; conditions: for mean reduction of PAN-induced hypercholesterolemia / serum total cholesterol: Day 11; for serum albumin: Day 11, Pio 10 mg/kg or GQ-16 40 mg/kg daily
Method: as §1
Serum albumin and cholesterol were measured using the ACE® albumin and cholesterol reagents (Alfa Wasserman Diagnostic Technologies, LLC, West Caldwell, NJ) on the Vet Axcel (Alfa Wasserman Diagnostic Technologies, LLC, West Caldwell, NJ) at the Clinical Pathology Services, The Ohio State University's College of Veterinary Medicine, according to the manufacturer's instructions.

[3] = Body weight in PAN-nephrotic rats; assay type: in vivo, rat
Method: as §1

PPARγ = target: T1, PPARγ (Homo sapiens, UniProt P37231); conditions: cited from earlier work
T1 sequence (P37231 1-505): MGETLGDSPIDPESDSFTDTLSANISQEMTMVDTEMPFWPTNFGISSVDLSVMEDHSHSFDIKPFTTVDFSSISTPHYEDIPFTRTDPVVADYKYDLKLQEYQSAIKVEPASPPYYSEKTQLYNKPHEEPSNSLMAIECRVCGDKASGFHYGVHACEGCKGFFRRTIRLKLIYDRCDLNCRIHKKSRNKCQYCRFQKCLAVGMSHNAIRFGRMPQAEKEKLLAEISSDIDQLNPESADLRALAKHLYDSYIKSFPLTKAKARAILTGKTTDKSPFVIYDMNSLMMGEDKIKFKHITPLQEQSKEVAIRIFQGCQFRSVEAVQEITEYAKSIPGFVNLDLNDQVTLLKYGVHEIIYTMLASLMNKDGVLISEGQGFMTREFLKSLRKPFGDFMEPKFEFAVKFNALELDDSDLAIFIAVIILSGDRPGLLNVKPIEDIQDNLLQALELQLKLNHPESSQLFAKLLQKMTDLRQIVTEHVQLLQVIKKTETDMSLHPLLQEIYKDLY

thrombin generation [4] = experiment: Thrombin generation assay (TGA) on platelet poor plasma of rats; assay type: in vivo, rat; conditions: PAN rats, plasma Day 11; for ETP (endogenous thrombin potential): Pio 10 mg/kg or GQ-16 40 mg/kg daily
Method: as §1
Thrombin generation assays (TGA) were performed using the Technothrombin® TGA Kit (Technoclone, Vienna, Austria) and Reagent C (RC) Low on PPP samples collected from the rats to determine various parameters such as the endogenous thrombin potential (ETP) and peak thrombin concentration. These assays were performed at least in duplicate on various rat groups (n=4-7/group). Briefly, PPP at 1:1 ratio with buffer was added to black well plates, and RC Low added. Then TGA substrate was added just before reading on a Spectramax M2 Fluorescent Plate Reader (Molecular Devices, San Jose, CA).

[5] = system: hepatic gene expression (Pcsk9, Abca1, F2, SerpinC1); experiment: Hepatic gene expression by qRT-PCR; assay type: in vivo, rat
Method: as §1
as §2, with “The melt curve conditions were 95° C. for 15 seconds, 60° C. for 1 minute, 30 seconds incremental increase to 95° C. and 60° C. for 15 seconds. The ΔΔCt method was used to analyze the results, including normalization to housekeeping genes (Rpl6 44 for glomeruli, Ppia 45, 46 for fat and liver). Pfaffl, M W, Nucleic acids research, 29: e45, 2001. Due to melt curve variation for Trpc6, amplified samples were also resolved on a 2% agarose gel, and densitometry was performed using ImageJ (National Institutes of Health, Bethesda, MD) software. Each gene was tested in triplicates for each tissue on at least three different rats per group.” left out

diabetic mice = conditions: in the absence of weight gain and edema; cited from earlier work
[6] = target: T2, PPARγ phosphorylation at Ser273 (Homo sapiens, UniProt P37231); conditions: in vitro assay; cited from earlier work
T2 sequence (P37231 1-505): T1 sequence (P37231 1-505)

[7] = system: PAN-induced nephropathy in male Wistar rats; experiment: PAN-induced nephropathy rat model: proteinuria (urine protein:creatinine ratio); assay type: in vivo; conditions: Day 11, Pio 10 mg/kg or GQ-16 40 mg/kg daily oral gavage; for Urinary protein/creatinine ratio (UPCr): PAN 50 mg/kg IV
Method: as §1
Urine was collected from rats daily throughout the study and resolved using sodium dodecyl sulfate-polyacrylamide gel electrophoresis (SDS-PAGE) on an 8% gel and stained with Coomassie Brilliant Blue G-250 (Alfa Aesar, Tewksbury, MA) to visualize the albumin bands. Urine protein:creatinine ratio (UPCr) analyses were performed on urine samples from Day 11 at the time of peak proteinuria by Antech Diagnostics GLP (Morrisville, N.C.) to quantify the proteinuria values.

P-PPARγ (Ser273) = target: T3, P-PPARγ (Ser273) (Rattus norvegicus, UniProt O88275); experiment: Western blot of glomerular P-PPARγ (Ser273) / total PPARγ; assay type: in vivo; conditions: PAN-nephrotic rats
T3 construct: To isolate protein from the glomeruli, liver, and fat tissues, the samples were lysed; from tissue; host or cells: glomeruli isolated from kidneys of male Wistar rats
T3 sequence (O88275 1-505): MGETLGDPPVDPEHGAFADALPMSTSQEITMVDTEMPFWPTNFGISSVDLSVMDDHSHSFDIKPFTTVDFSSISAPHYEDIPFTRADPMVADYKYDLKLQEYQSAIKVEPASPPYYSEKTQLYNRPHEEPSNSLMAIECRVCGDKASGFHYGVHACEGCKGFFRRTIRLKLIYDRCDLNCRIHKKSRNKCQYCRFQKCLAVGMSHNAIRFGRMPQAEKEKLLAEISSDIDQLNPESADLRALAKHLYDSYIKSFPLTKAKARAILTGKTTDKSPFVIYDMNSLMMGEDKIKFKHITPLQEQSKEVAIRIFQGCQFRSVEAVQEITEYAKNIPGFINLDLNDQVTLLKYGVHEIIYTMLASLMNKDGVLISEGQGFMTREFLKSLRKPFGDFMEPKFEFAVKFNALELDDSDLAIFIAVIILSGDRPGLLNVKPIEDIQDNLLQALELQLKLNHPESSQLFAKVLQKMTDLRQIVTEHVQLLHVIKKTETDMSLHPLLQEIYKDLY
Method: Male Wistar rats were intravenously (IV) injected with puromycin aminonucleoside (PAN) (Sigma-Aldrich, St. Louis, Mo.) (50 mg/kg) on Day 0, which induced proteinuria, while control rats were given IV injections of saline. The rats were treated by oral gavage with Pioglitazone (Alfa Aesar, Tewksbury, Mass.) (10 mg/kg), GQ-16 (40 mg/kg), or a sham vehicle daily. […] Spot urine and serum were collected, and body weights were recorded throughout the study. […] Kidneys were harvested, and the glomeruli were isolated using the sequential sieving method.
To isolate protein from the glomeruli, liver, and fat tissues, the samples were lysed in a lock tube with RIPA buffer (1M Tris HCl, 0.5M EDTA, 5M NaCl, 10% SDS) containing protease inhibitor cocktail (Thermo Scientific, Waltham, MA) and phosphatase inhibitor cocktail (Alfa Aesar, Tewksbury, MA) and a stainless-steel disruption bead using a Qiagen TissueLyser (Germantown, Md.). Following lysis/homogenization at 30.0 Hz for 4 minutes (liver and fat) or 1 minute (glomeruli), samples were centrifuged for 10 minutes at 4° C. at 12,000 rpm. The supernatant was collected, and the proteins were resolved by SDS-PAGE and transferred to an Immobilon-P polyvinylidene difluoride (PVDF) Transfer Membrane (Millipore Sigma, St. Louis, MO). […] Protein bands were detected by chemiluminescence using the Chemidoc MP Imaging System (Bio-Rad, Hercules, CA). […]

[8] = system: glomerular gene expression (Nphs1, Nrf2, Trpc6, Pparg); experiment: Glomerular gene expression by qRT-PCR; assay type: in vivo, rat; conditions: PAN rats
Method: as §1
as §2, with “The melt curve conditions were 95° C. for 15 seconds, 60° C. for 1 minute, 30 seconds incremental increase to 95° C. and 60° C. for 15 seconds. The ΔΔCt method was used to analyze the results, including normalization to housekeeping genes (Rpl6 44 for glomeruli, Ppia 45, 46 for fat and liver). Pfaffl, M W, Nucleic acids research, 29: e45, 2001. Due to melt curve variation for Trpc6, amplified samples were also resolved on a 2% agarose gel, and densitometry was performed using ImageJ (National Institutes of Health, Bethesda, MD) software. Each gene was tested in triplicates for each tissue on at least three different rats per group.” left out

thrombin generation [9] = conditions: previous study; cited from earlier work
[10] = in vivo; cited from earlier work

COc1ccc(Br)cc1/C=C1\SC(=O)N(Cc2ccc(C)cc2)C1=O [GQ-16, 5-(5-bromo-2-methoxy-benzylidine)-3-(4-methyl-benzyl)-thiazolidine-2,4-dione]
WAT Adipoq expression [1]: induced more robustly | WAT Adipsin (Cfd) expression [1]: induced more robustly | WAT Ap2 (Fabp4) expression [1]: ~2.2 fold | WAT Cd36 expression [1]: no significant differences | WAT Pgc1a expression [1]: trend in increase | WAT Pparg expression [1]: induced | WAT Δ exon 5 splice variant of Pparg, normalized to total Pparg [1]: further reduced | mean reduction of PAN-induced hypercholesterolemia [2]: 86% | serum total cholesterol [2]: 93.14 ± 13.36 mg/dL | serum albumin [2]: 2.64 ± 0.15 g/dL | body weight (weight reduction of nephrotic rats) [3]: maintained | Ki (PPARγ): 0.16 µM | Lag Phase (thrombin generation [4]): 9.250 ± 1.532 min | Peak Thrombin (thrombin generation [4]): 134.0 ± 35.54 nM | Velocity Index (thrombin generation [4]): 19.91 ± 6.643 nM/min | ETP (endogenous thrombin potential) (thrombin generation [4]): 2544 ± 489.0 nM·min | hepatic Pcsk9 expression ([5]; PAN rats (PAN ~30 fold up)): restored to control levels | hepatic F2 expression ([5]; PAN rats, tendency, p=0.07): reduced | hepatic SerpinC1 expression ([5]; PAN rats, tendency, p=0.07): reduced | hepatic Abca1 expression ([5]; PAN rats, trend, p=0.057): ~23 fold | insulin sensitivity (diabetic mice): improve | receptor phosphorylation at Ser273 [6]: block | Urinary protein/creatinine ratio (UPCr) [7]: 8.01 ± 3.54 mg/mg | mean reduction in PAN-induced proteinuria [7]: 84% and 81% | phosphorylation status of PPARγ at Ser273 (glomeruli) (P-PPARγ (Ser273)): unaltered | glomerular Nphs1 expression ([8]; vs PAN): significantly restored | glomerular Nrf2 expression ([8]; vs PAN): marked restoration | glomerular Pparg expression ([8]; not significant (p=0.06)): somewhat increased | glomerular Trpc6 expression ([8]; trend only): reduction

CCc1ccc(CCOc2ccc(CC3SC(=O)NC3=O)cc2)nc1 (stereo not shown) [Pio, pioglitazone, reference compound]
WAT Ap2 (Fabp4) expression [1]: ~3.4 fold | ETP in healthy control rats (thrombin generation [9]): significantly increased | mean reduction of PAN-induced hypercholesterolemia [2]: 80% | serum total cholesterol [2]: 97.86 ± 12.37 mg/dL | serum albumin [2]: 2.34 ± 0.14 g/dL | body weight (weight reduction of nephrotic rats) [3]: did not show any significant difference from control rats | half-life [10]: 8 to 9 h | time of peak (systemic) [10]: 1.5 to 2 h | Lag Phase (thrombin generation [4]): 7.714 ± 0.6974 min | Peak Thrombin (thrombin generation [4]): 180.8 ± 29.50 nM | Velocity Index (thrombin generation [4]): 34.67 ± 8.448 nM/min | ETP (endogenous thrombin potential) (thrombin generation [4]): 3509 ± 427.8 nM·min | Urinary protein/creatinine ratio (UPCr) [7]: 13.17 ± 5.51 mg/mg | mean reduction in PAN-induced proteinuria [7]: 64%

Reference: patent publication US12569472B2, “PPARγ agonists for treatment of kidney disease” (The Research Institute at Nationwide Children's Hospital, priority 2020, dated 2026)
